US8063021B2, “Ketolide anti-infective compounds” (Kosan Biosciences Incorporated, priority 2003, dated 2011)
Where two headings read alike, the source gives them in different places.

Columns and labels:
[1] = test system: S. pneumoniae ATCC 700905; assay: microdilution assay MIC, S. pneumoniae ATCC 700905; format: cell-based, Streptococcus pneumoniae
Description: (§1) In Table B, in some instances multiple assays were performed for a compound/strain combination, in which case the reported MIC is the average. S. pneumoniae ATCC 6301, ATCC 700671, and ATCC 49619 and S. aureus ATCC 6538p and ATCC 29213 are erythromycin sensitive strains.

[2] = test system: S. pneumoniae ATCC 700676; assay: microdilution assay MIC, S. pneumoniae ATCC 700676; format: cell-based, Streptococcus pneumoniae
Description: as §1

S. pneumoniae ATCC 49619 = assay: microdilution assay MIC, S. pneumoniae ATCC 49619; format: cell-based, Streptococcus pneumoniae; conditions: S. pneumoniae ATCC 49619, erythromycin sensitive strain, average where multiple assays
Description: as §1

[3] = test system: S. epidermidis ATCC 12228; assay: microdilution assay MIC, S. epidermidis ATCC 12228; format: cell-based, Staphylococcus epidermidis
Description: as §1

S. pneumoniae ATCC 6301 = assay: microdilution assay MIC, S. pneumoniae ATCC 6301; format: cell-based, Streptococcus pneumoniae; conditions: S. pneumoniae ATCC 6301, erythromycin sensitive strain, average where multiple assays
Description: as §1

E. faecalis ATCC 51575 = assay: microdilution assay MIC, E. faecalis ATCC 51575; format: cell-based, Enterococcus faecalis
Description: (§2) In Table B, in some instances multiple assays were performed for a compound/strain combination, in which case the reported MIC is the average.

H. influenzae ATCC 9006 = assay: microdilution assay MIC, H. influenzae ATCC 9006; format: cell-based, Haemophilus influenzae
Description: as §1

[4] = test system: S. pneumoniae ATCC 700677; assay: microdilution assay MIC, S. pneumoniae ATCC 700677; format: cell-based, Streptococcus pneumoniae
Description: as §1

S. aureus ATCC 6538p = assay: microdilution assay MIC, S. aureus ATCC 6538p; format: cell-based, Staphylococcus aureus; conditions: erythromycin sensitive strain, average where multiple assays
Description: as §1

H. influenzae ATCC 49766 = assay: microdilution assay MIC, H. influenzae ATCC 49766; format: cell-based, Haemophilus influenzae
Description: as §1

[5] = test system: S. pneumoniae ATCC 700906; assay: microdilution assay MIC, S. pneumoniae ATCC 700906; format: cell-based, Streptococcus pneumoniae
Description: as §2

S. aureus ATCC 29213 = assay: microdilution assay MIC, S. aureus ATCC 29213; format: cell-based, Staphylococcus aureus; conditions: S. aureus ATCC 29213, erythromycin sensitive strain, average where multiple assays
Description: as §1

S. aureus ATCC 14154 = assay: microdilution assay MIC, S. aureus ATCC 14154; format: cell-based, Staphylococcus aureus
Description: as §2

[6] = test system: S. pneumoniae ATCC 700671; assay: microdilution assay MIC, S. pneumoniae ATCC 700671; format: cell-based, Streptococcus pneumoniae; conditions: S. pneumoniae ATCC 700671, erythromycin sensitive strain, average where multiple assays
Description: as §1

[7] = S. pneumoniae ATCC 700905, erythromycin A resistant strain, average where multiple assays
[8] = S. pneumoniae ATCC 700676, erythromycin A resistant strain, average where multiple assays
[9] = S. pneumoniae ATCC 700677, erythromycin A resistant strain, average where multiple assays
[10] = S. pneumoniae ATCC 700906, erythromycin A resistant strain, average where multiple assays
[11] = S. aureus ATCC 14154, erythromycin A resistant strain, average where multiple assays

Work on `CC[C@H]1OC(=O)[C@H](C)C(=O)[C@H](C)[C@@H](O[C@@H]2O[C@H](C)C[C@H](N(C)C)[C@H]2O)[C@](C)(OC)C[C@@H](C)C(=O)[C@H](C)[C@H]2N(CCCCn3cnc(-c4cccnc4)c3)C(=O)O[C@]12C` [Tel, telithromycin, reference compound] yielded an MIC ([1]; Streptococcus pneumoniae, ATCC700905, read-out: MIC) of 0.025 µg/mL, an MIC ([2]; Streptococcus pneumoniae, ATCC700676, read-out: MIC) of 0.098 µg/mL and an MIC (S. pneumoniae ATCC 49619; Streptococcus pneumoniae, ATCC49619, read-out: MIC) of 0.049 µg/mL. It also gave an MIC ([3]; Staphylococcus epidermidis, ATCC12228, average where multiple assays, read-out: MIC) of 0.025 µg/mL, an MIC (S. pneumoniae ATCC 6301; Streptococcus pneumoniae, ATCC6301, read-out: MIC) of 0.025 µg/mL and an MIC (E. faecalis ATCC 51575; Enterococcus faecalis, ATCC51575, average where multiple assays, read-out: MIC) of over 12.5 µg/mL. The MIC (H. influenzae ATCC 9006; Haemophilus influenzae, ATCC9006, average where multiple assays, read-out: MIC) was 1.56 µg/mL, the MIC ([4]; Streptococcus pneumoniae, ATCC700677, read-out: MIC) was 0.025 µg/mL and the MIC (S. aureus ATCC 6538p; Staphylococcus aureus, ATCC6538P, read-out: MIC) was 0.025 µg/mL. It also gave an MIC (H. influenzae ATCC 49766; Haemophilus influenzae, ATCC49766, average where multiple assays, read-out: MIC) of 3.12 µg/mL, an MIC ([5]; Streptococcus pneumoniae, ATCC700906, read-out: MIC) of 0.2 µg/mL and an MIC (S. aureus ATCC 29213; Staphylococcus aureus, ATCC29213, read-out: MIC) of 0.025 µg/mL. It also gave an MIC (S. aureus ATCC 14154; Staphylococcus aureus, ATCC14154, read-out: MIC) of over 12.5 µg/mL and an MIC ([6]; Streptococcus pneumoniae, ATCC700671, read-out: MIC) of 0.025 µg/mL.

For `COC1(C)CC(C)C(=O)C(C)C2NC(=O)OC2(C)C(CCNS(=O)(=O)c2cccc(-c3ccco3)c2)OC(=O)C(C)C(=O)C(C)C1OC1OC(C)CC(N(C)C)C1O` (stereo not shown) [Compound 108], the MIC [1, 7] was 0.025 µg/mL, the MIC [2, 8] was 0.025 µg/mL and the MIC (S. pneumoniae ATCC 49619) was 0.025 µg/mL. The MIC ([3]; average where multiple assays) was 0.025 µg/mL, the MIC (S. pneumoniae ATCC 6301) was 0.025 µg/mL and the MIC (E. faecalis ATCC 51575; average where multiple assays) was 0.025 µg/mL. It also gave an MIC (H. influenzae ATCC 9006; average where multiple assays) of 12.5 µg/mL, an MIC [4, 9] of 0.025 µg/mL and an MIC (S. aureus ATCC 6538p) of 0.025 µg/mL. For the same compound, the MIC (H. influenzae ATCC 49766; average where multiple assays) was over 12.5 µg/mL, the MIC [5, 10] was 0.049 µg/mL and the MIC (S. aureus ATCC 29213) was 0.025 µg/mL. It also gave an MIC (S. aureus ATCC 14154; [11]) of 0.049 µg/mL and an MIC [6] of 0.025 µg/mL.

Work on `COC1(C)CC(C)C(=O)C(C)C2NC(=O)OC2(C)C(CCNS(=O)(=O)c2cccc3ccccc23)OC(=O)C(C)C(=O)C(C)C1OC1OC(C)CC(N(C)C)C1O` (stereo not shown) [Compound 106] yielded an MIC [1, 7] of 0.01 µg/mL, an MIC [2, 8] of 0.01 µg/mL and an MIC (S. pneumoniae ATCC 49619) of 0.01 µg/mL. It also gave an MIC ([3]; average where multiple assays) of 0.025 µg/mL, an MIC (S. pneumoniae ATCC 6301) of 0.01 µg/mL and an MIC (E. faecalis ATCC 51575; average where multiple assays) of 0.025 µg/mL. It also gave an MIC (H. influenzae ATCC 9006; average where multiple assays) of 6.25 µg/mL, an MIC [4, 9] of 0.01 µg/mL and an MIC (S. aureus ATCC 6538p) of 0.01 µg/mL. It also gave an MIC (H. influenzae ATCC 49766; average where multiple assays) of 6.25 µg/mL, an MIC [5, 10] of 12.5 µg/mL and an MIC (S. aureus ATCC 29213) of 0.025 µg/mL. For the same compound, the MIC (S. aureus ATCC 14154; [11]) was 3.12 µg/mL and the MIC [6] was 0.01 µg/mL.

For `COC1(C)CC(C)C(=O)C(C)C2NC(=O)OC2(C)C(CCN(Cc2cccc(-c3ccco3)c2)Cc2cccc(-c3ccco3)c2)OC(=O)C(C)C(=O)C(C)C1OC1OC(C)CC(N(C)C)C1O` (stereo not shown) [Compound 104], the MIC [1, 7] was over 12.5 µg/mL, the MIC [2, 8] was 6.25 µg/mL and the MIC (S. pneumoniae ATCC 49619) was over 12.5 µg/mL. It also gave an MIC ([3]; average where multiple assays) of 6.25 µg/mL, an MIC (S. pneumoniae ATCC 6301) of 3.12 µg/mL and an MIC (E. faecalis ATCC 51575; average where multiple assays) of 12.5 µg/mL. For the same compound, the MIC (H. influenzae ATCC 9006; average where multiple assays) was over 12.5 µg/mL, the MIC [4, 9] was 6.25 µg/mL and the MIC (S. aureus ATCC 6538p) was over 12.5 µg/mL. For the same compound, the MIC (H. influenzae ATCC 49766; average where multiple assays) was over 12.5 µg/mL, the MIC [5, 10] was over 12.5 µg/mL and the MIC (S. aureus ATCC 29213) was 6.25 µg/mL. For the same compound, the MIC (S. aureus ATCC 14154; [11]) was 6.25 µg/mL and the MIC [6] was 3.12 µg/mL.

`COC1(C)CC(C)C(=O)C(C)C2NC(=O)OC2(C)C(CCNS(=O)(=O)c2cccc3cccnc23)OC(=O)C(C)C(=O)C(C)C1OC1OC(C)CC(N(C)C)C1O` (stereo not shown) [Compound 105] showed an MIC [1, 7] of 0.01 µg/mL, an MIC [2, 8] of 0.01 µg/mL and an MIC (S. pneumoniae ATCC 49619) of 0.01 µg/mL. It also gave an MIC ([3]; average where multiple assays) of 0.025 µg/mL, an MIC (S. pneumoniae ATCC 6301) of 0.01 µg/mL and an MIC (E. faecalis ATCC 51575; average where multiple assays) of 0.025 µg/mL. It also gave an MIC (H. influenzae ATCC 9006; average where multiple assays) of 3.12 µg/mL, an MIC [4, 9] of 0.01 µg/mL and an MIC (S. aureus ATCC 6538p) of 0.049 µg/mL. For the same compound, the MIC (H. influenzae ATCC 49766; average where multiple assays) was 6.25 µg/mL, the MIC [5, 10] was 0.39 µg/mL and the MIC (S. aureus ATCC 29213) was 0.049 µg/mL. It also gave an MIC (S. aureus ATCC 14154; [11]) of 0.39 µg/mL and an MIC [6] of 0.01 µg/mL.
